# Experimental data taken from PMC7279487, “Dual Target Ligands with 4-tert-Butylphenoxy Scaffold as Histamine H3 Receptor Antagonists and Monoamine Oxidase B Inhibitors” (International Journal of Molecular Sciences, 2020).
# Target: T1, human MAO A (Homo sapiens, UniProt P21397)
# T1 construct: purchased Sigma Aldrich M7316
# T1 sequence (P21397 1-527): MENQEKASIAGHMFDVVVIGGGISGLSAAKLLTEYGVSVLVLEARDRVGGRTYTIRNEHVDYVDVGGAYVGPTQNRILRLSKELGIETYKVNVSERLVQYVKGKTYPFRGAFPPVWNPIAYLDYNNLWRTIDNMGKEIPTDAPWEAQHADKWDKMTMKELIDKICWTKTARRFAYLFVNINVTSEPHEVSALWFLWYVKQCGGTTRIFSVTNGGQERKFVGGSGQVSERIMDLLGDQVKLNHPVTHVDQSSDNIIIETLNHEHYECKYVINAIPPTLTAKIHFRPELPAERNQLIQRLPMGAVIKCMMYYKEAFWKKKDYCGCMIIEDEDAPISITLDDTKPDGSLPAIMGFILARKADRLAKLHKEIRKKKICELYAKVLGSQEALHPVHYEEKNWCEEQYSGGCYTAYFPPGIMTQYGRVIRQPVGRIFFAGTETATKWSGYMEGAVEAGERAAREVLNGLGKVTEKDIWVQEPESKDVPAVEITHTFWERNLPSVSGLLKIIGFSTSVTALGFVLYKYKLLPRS
# Test: hMAO A inhibition, fluorometric Amplex Red MAO assay
# Assay type: biochemical
# Conditions: mean ± SEM; p-tyramine 200 μM
# Description: Inhibitory potency of compounds on MAO isoenzymes were carried out by a fluorometric method with a commercial Amplex™ Red Monoamine Oxidase Assay Kit (ThermoFisher Scientific A12214, Waltham, MA, USA) as described previously. For all tests, recombinant human MAO B and MAO A (from Sigma AldrichM7441 and M7316, Darmstadt, Germany) were used. Inhibitors’ activity was measured in the presence of p-tyramine (200 μM).
# […] […] All calculations were made in Microsoft Excel and GraphPadPrism software. All experiments were performed in duplicate, and data are expressed as mean ± SEM of 2–5 independent experiments.
smiles,measurement,value
"CC(C)(C)c1ccc(OCCCN2CCCCC2)cc1 [DL76, 1-(3-(4-tert-butylphenoxy)propyl)piperidine]",IC50,> 10 µM
